Test system: P12-Ichikawa
Assay: cell viability relative to DMSO control; higher = less cytotoxic
Conditions: 48 h
Summary of the method: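 Viability, reported as a per-plate percentage of DMSO wells with cell-free wells as background, came from CellTiter-Glo One luminescence. Reading took place after 48 h at 37°C. Before that, NOMO1 or SEM (500 cells/well) or P12-Ichikawa (1000 cells/well) leukemia cells, adapted for at least four passages in each medium, were seeded in 1536-well plates (5 μl) and pin-dosed with library compounds in DMSO, 47 μM to 0.79 nM over 11 threefold points.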

[1] = HPLM + 10% dialyzed FBS, 0.000781 µM
[2] = HPLM + 10% dialyzed FBS, 0.00234 µM
[3] = HPLM + 10% dialyzed FBS, 0.0211 µM
[4] = HPLM + 10% dialyzed FBS, 0.0632 µM
[5] = HPLM + 10% dialyzed FBS, 0.19 µM
[6] = HPLM + 10% dialyzed FBS, 0.569 µM
[7] = HPLM + 10% dialyzed FBS, 5.12 µM
[8] = HPLM + 10% dialyzed FBS, 15.4 µM
[9] = HPLM + 10% dialyzed FBS, 46.1 µM
[10] = RPMI 5 mM glucose + 10% FBS, 0.000781 µM
[11] = RPMI 5 mM glucose + 10% FBS, 0.00234 µM
[12] = RPMI 5 mM glucose + 10% FBS, 0.00702 µM
[13] = RPMI 5 mM glucose + 10% FBS, 0.0211 µM
[14] = RPMI 5 mM glucose + 10% FBS, 0.0632 µM
[15] = RPMI 5 mM glucose + 10% FBS, 0.19 µM
[16] = RPMI 5 mM glucose + 10% FBS, 0.569 µM
[17] = RPMI 5 mM glucose + 10% FBS, 1.71 µM
[18] = RPMI 5 mM glucose + 10% FBS, 5.12 µM
[19] = RPMI 5 mM glucose + 10% FBS, 15.4 µM
[20] = RPMI 5 mM glucose + 10% FBS, 46.1 µM
[21] = RPMI 5 mM glucose + 10% dialyzed FBS, 0.000781 µM
[22] = RPMI 5 mM glucose + 10% dialyzed FBS, 0.00234 µM
[23] = RPMI 5 mM glucose + 10% dialyzed FBS, 0.00702 µM
[24] = RPMI 5 mM glucose + 10% dialyzed FBS, 0.0211 µM
[25] = RPMI 5 mM glucose + 10% dialyzed FBS, 0.0632 µM
[26] = RPMI 5 mM glucose + 10% dialyzed FBS, 0.19 µM
[27] = RPMI 5 mM glucose + 10% dialyzed FBS, 0.569 µM
[28] = RPMI 5 mM glucose + 10% dialyzed FBS, 1.71 µM
[29] = RPMI 5 mM glucose + 10% dialyzed FBS, 5.12 µM
[30] = RPMI 5 mM glucose + 10% dialyzed FBS, 15.4 µM
[31] = RPMI 5 mM glucose + 10% dialyzed FBS, 46.1 µM
[32] = HPLM + 10% dialyzed FBS, 0.00702 µM
[33] = HPLM + 10% dialyzed FBS, 1.71 µM

SMILES | cell viability [1] [%] | cell viability [2] [%] | cell viability [3] [%] | cell viability [4] [%] | cell viability [5] [%] | cell viability [6] [%] | cell viability [7] [%] | cell viability [8] [%] | cell viability [9] [%] | cell viability [10] [%] | cell viability [11] [%] | cell viability [12] [%] | cell viability [13] [%] | cell viability [14] [%] | cell viability [15] [%] | cell viability [16] [%] | cell viability [17] [%] | cell viability [18] [%] | cell viability [19] [%] | cell viability [20] [%] | cell viability [21] [%] | cell viability [22] [%] | cell viability [23] [%] | cell viability [24] [%] | cell viability [25] [%] | cell viability [26] [%] | cell viability [27] [%] | cell viability [28] [%] | cell viability [29] [%] | cell viability [30] [%] | cell viability [31] [%] | cell viability [32] [%] | cell viability [33] [%]
C=CCc1ccc(O)c(-c2ccc(O)c(CC=C)c2)c1 | 112 | 113 | 113 | 119 | 28.9 | 13.7 | 9.66 | 11.3 | 18.2 | 109 | 110 | 110 | 113 | 120 | 120 | 118 | 17.5 | 14.9 | 13.7 | 11 | 105 | 116 | 113 | 115 | 122 | 113 | 63.9 | 25.6 | 18.4 | 21.3 | 21.2 | – | –
N=C1N[C@H]2[C@H](CS[C@H]2CCCCC(=O)O)N1 | 108 | 116 | 118 | 124 | 119 | 130 | 123 | 119 | 113 | 123 | 130 | 121 | 134 | 135 | 131 | 125 | 126 | 135 | 126 | 139 | 114 | 124 | 111 | 129 | 117 | 126 | 121 | 117 | 126 | 126 | 116 | 110 | 114
O=C1NC(=O)/C(=C/c2ccc(-c3ccc(F)cc3O)o2)S1 | 113 | 117 | 121 | 112 | 116 | 108 | 97.7 | 97.9 | 89.7 | 116 | 117 | 112 | 112 | 112 | 111 | 102 | 90.4 | 90.1 | 80 | 65.7 | 115 | 120 | 121 | 117 | 117 | 121 | 117 | 88.2 | 89.5 | 84.3 | 72.4 | 116 | 107
C[C@@]1(C(=O)Nc2ccc(F)nc2)CCCN1c1nc(Nc2cc(C3CC3)[nH]n2)c2cccn2n1 | 103 | 109 | 112 | 114 | 112 | 117 | 11.6 | 15.1 | 18.6 | 119 | 116 | 130 | 113 | 124 | 120 | 124 | 116 | 21.9 | 23.2 | 27.5 | 107 | 122 | 135 | 121 | 129 | 126 | 131 | 121 | 32.2 | 41 | 43 | 111 | 114
COc1cc(C(=O)NS(=O)(=O)c2ccccc2C)ccc1Cc1cn(C)c2ccc(NC(=O)OC3CCCC3)cc12 | 73.2 | 81.6 | 90.7 | 89.8 | 86.6 | 86.5 | 88.8 | 104 | 72.3 | 82.7 | 78.3 | 79.2 | 88.1 | 77.8 | 83.6 | 84.4 | 85 | 90.1 | 87 | 5.73 | 76.9 | 74 | 76.6 | 81.6 | 83.8 | 78.3 | 89.6 | 82.3 | 92.5 | 87.4 | 44.2 | 85.9 | 89.1
OC[C@H]1O[C@@H]2[C@@H](OC\3=N\C(=N)\C=C/[N@@]23)[C@@H]1O | 113 | 119 | 105 | 95.6 | 44.3 | 24.7 | 10.7 | 7.98 | 8.28 | 116 | 118 | 118 | 105 | 93.2 | 47.3 | 22.5 | 12.1 | 8.81 | 7.28 | 6.52 | 109 | 122 | 114 | 117 | 92.4 | 53.2 | 28.6 | 17 | 11.6 | 9.01 | 7.41 | 107 | 13.5
CN(C)CCN1C(=O)c2cccc3cc(N)cc(c23)C1=O | 104 | 113 | 109 | 111 | 114 | 115 | 104 | 74.8 | 7.88 | 101 | 113 | 107 | 113 | 122 | 116 | 125 | 102 | 92.4 | 54.7 | 5.84 | 105 | 112 | 108 | 102 | 118 | 130 | 120 | 101 | 89.2 | 77.9 | 11.8 | 108 | 113
N[S+](=O)([O-])OC[C@@H]1C[C@@H](n2ccc3c(N[C@H]4CCc5ccccc54)ncnc32)C[C@@H]1O | 95.1 | 102 | 102 | 113 | 118 | 116 | 38.3 | 16.1 | 12.7 | 107 | 105 | 107 | 126 | 108 | 120 | 116 | 61.5 | 31.2 | 9.99 | 8.16 | 97.4 | 111 | 106 | 110 | 98.2 | 106 | 100 | 54.1 | 34.4 | 12.3 | 11.2 | 110 | 82.2
CC/1=C(/N2[C@H](SC1)[C@H](NC(=O)C(N)C3=CC=CC=C3)C2=O)C(O)=O (stereo partly drawn) | 119 | 122 | 133 | 136 | 135 | 133 | 144 | 136 | 138 | – | – | – | – | – | – | – | – | – | – | – | – | – | – | – | – | – | – | – | – | – | – | 129 | 136
CC(C)Oc1ccc(C(=O)N[C@H](CNC(=O)CN(C)C)Cc2ccc(-c3cn4cccc([C@H](C)O)c4n3)cc2)cc1Cl | 121 | 115 | 115 | 106 | 101 | 107 | 48.3 | 45.8 | 54.2 | 117 | 120 | 118 | 111 | 115 | 110 | 103 | 41.2 | 25.3 | 23 | 26.6 | 108 | 117 | 112 | 110 | 102 | 101 | 97.9 | 63 | 38.4 | 31.6 | 32.7 | 118 | 78.1
COc1cccc2c1CCCC2CCCN1CCN(C2CCCCC2)CC1 (stereo not drawn) | 104 | 110 | 112 | 106 | 113 | 111 | 109 | 103 | 81.5 | 111 | 99.9 | 117 | 114 | 127 | 119 | 116 | 122 | 114 | 99.5 | 62.9 | 95.7 | 102 | 114 | 111 | 116 | 110 | 111 | 103 | 105 | 93.4 | 66.2 | 97.7 | 110
c1ccc(-c2oc3ncnc(NC[C@@H]4CCCO4)c3c2-c2ccccc2)cc1 | – | – | – | – | – | – | – | – | – | – | – | – | – | – | – | – | – | – | – | – | 109 | 118 | 120 | 113 | 127 | 124 | 128 | 115 | 112 | 103 | 49.8 | – | –
COc1cc(/C=C/C(=O)O)ccc1O | 89.1 | 93 | 104 | 95.7 | 102 | 107 | 103 | 106 | 107 | 90.9 | 88.5 | 91.9 | 84.4 | 88.5 | 92 | 99.4 | 88.4 | 79.1 | 97.1 | 101 | 88.1 | 89.8 | 88.7 | 94.1 | 91.5 | 91.1 | 96.3 | 93.5 | 91.1 | 94.1 | 99 | 91.4 | 99

From the supplement of paper PMC11451515
